As a reminder, the IC50 is the midpoint of a concentration-inhibition curve. Higher therefore signals a need for much substance. One may read the AUC(0-inf) as total exposure, with the tail of the curve extrapolated. Lower therefore signals low exposure. Usually Cmax stands for the highest concentration seen after dosing.

Data on four compounds can be found in patent US20230364079A1, “COMPOUND AS BRAIN-PERMEABLE BTK OR HER2 INHIBITOR, PREPARATION METHOD THEREFOR, AND USE THEREOF” (CHENGDU HYPERWAY PHARMACEUTICALS CO., LTD., priority 2020, published 2023).

The target of one data set is BTK wild-type kinase (Homo sapiens (Human), UniProt Q06187). Nature of the data set: BTK kinase activity inhibition test in vitro (Caliper EZ Reader). Format: biochemical. In outline: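 Compound (10 mM DMSO stock) preincubated with kinase 10 min at room temperature, then ATP plus kinase substrate 2 added, 10 min reaction at room temperature before stop. Substrate conversion read by Caliper mobility shift; inhibition normalised to no-enzyme and no-compound controls, IC50 by variable-slope log(inhibitor) fit.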

The target in data set [1] is BTK mutation-type C481S kinase (Homo sapiens (Human), UniProt Q06187, C481S). Nature of the data set: BTK-C481S kinase activity inhibition test in vitro (Caliper EZ Reader). In kind it is biochemical. The method, then: In the tests on the activity of inhibiting BTK and HER2 kinase in vitro in the examples of the present disclosure, powder of the compound was dissolved in 100% DMSO to prepare a 10 mM stock solution and stored at-20° C. in the dark. […] In addition, the compounds were subjected to experiments such as liver microsome metabolic stability, rat PK, rat brain penetration rate, and drug efficacy model in the examples of the present disclosure.
Compound powders were dissolved in 100% DMSO to make 10 mM stock solutions, which were stored at -20° C. in the dark.
2: Kinase Reaction Process
(1) Preparation of 1 × Kinase buffer.
(5) After centrifugation at 1000 rpm for 30 seconds, the reaction plate was shaken to mix well and incubated at room temperature for 10 min.
(6) A 5/3-fold final concentration of a mixed solution of ATP and Kinase substrate 2 was prepared with 1 × Kinase buffer.
(7) 15 µL of the mixed solution of ATP and substrate with 5/3-fold final concentration was added to start the reaction.
(8) The 384-well plate was centrifuged at 1000 rpm for 30 seconds, shaken to mix well, and incubated at room temperature for 10 min.
(9) 30 µL of a stop solution was added to stop the kinase reaction, and after centrifugation at 1000 rpm for 30 seconds, the plate was shaken to mix well;
(10) The conversion rate was read with Caliper EZ Reader.
where Conversion%_sample indicates the conversion rate reading of the sample; Conversion%_min is the average reading of the negative control wells, representing the conversion rate reading of the wells without enzyme activity; Conversion%_max is the average reading of the ratio of the positive control wells, representing the conversion rate reading of the wells without compound inhibition.
Dose-Response Curve Fitting
With the log value of the concentration as the X-axis, and the percentage inhibition rate as the Y-axis, the dose-effect curve was fitted using the log(inhibitor) vs. response-Variable slope of the analysis software GraphPad Prism 5, so as to determine the IC50 value of each compound on the enzyme activity.
The calculation formula was: […]

The nature of data set [2]: Liver microsome metabolic stability test, human. Format: in vitro ADME. The conditions noted are these: for half-life: liver microsomes, 0.5 mg/mL protein, read-out: T½. The method, then: (§1) 1: To the sample wells of T0, T5, T10, T20, T30, T60 and NCF60, 10 µL of the test or reference working solution and 80 µL of microsome working solution (hepatic microsome with a protein concentration of 0.5 mg/mL) were added, and to Blank60 well, only the microsome working solution was added. Then samples of the Blank60, T5, T10, T20, T30 and T60 other than T0 and NCF60 were placed in a 37° C. water bath and pre-incubated for about 10 min.
(§2) 2: To the T0 sample well, 300 µL of stop solution (containing 200 ng/mL tolbutamide and 200 ng/mL labetalol in acetonitrile solution) was added first, followed by 10 µL of NADPH regeneration system working solution.
(§3) 3: After the pre-incubation of Blank60, T5, T10, T20, T30 and T60 incubation plates, 10 µL of NADPH regeneration system working solution was added to each sample well to start the reaction, and 10 µL of 100 mM potassium phosphate buffer was added to the NCF60 sample well.
(§4) 4: After incubation for an appropriate time (such as 5, 10, 20, 30 and 60 min), to each test sample well and control well of the Blank60, T5, T10, T20, T30, T60 and NCF60 plates, 300 µL of stop solution was added to terminate the reaction.
(§5) 5: All sample plates were shaken to mix well and centrifuged at 4000 rpm for 20 min, and 100 µL of the supernatant of the test sample or control sample was taken and diluted with 300 µL of pure water for LC-MS/MS analysis.
(§6) 6: Data analysis: T½ and CLint(mic) (µL/min/mg) values were calculated according to the first-order elimination kinetics. The first-order elimination kinetics equation was: […]
For orientation: Liver microsomes are a subcellular fraction often used to study metabolism.

Data set [3] can be described thus: Liver microsome metabolic stability test, rat. Format: in vitro ADME. Conditions: for half-life: liver microsomes, 0.5 mg/mL protein, read-out: T½. The protocol: as §1, §2, §3, §4, §5, §6
Data set [4] in a line: Pharmacokinetic test, oral, SD rats. Format: in vivo. Conditions: oral 10 mg/kg, plasma; for AUC(0-inf) / Cmax / half-life: rat; for Cmax: read-out: Cmax; for half-life: read-out: T½ (converted). In outline:
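Male/female status unstated; SD rats (3 per group) dosed orally at 10 mg/kg after overnight fast, refed 4 h post-dose. Plasma from serial blood draws stored at -20° C, protein-precipitated with internal standard solution and quantified by LC-MS/MS.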

Data set [5] has as its system TMD8 mouse subcutaneous xenograft tumor. Description: TMD8 pharmacodynamic model test (mouse subcutaneous xenograft tumor). In kind it is in vivo. The conditions noted are these: for inhibitory effect against the tumor compared with ARQ-531 and ibrutinib: same dose of 10 mg/kg, FIG. 1. The protocol:
Test Example 7: TMD8 Pharmacodynamic Model Test
Human diffuse large B-cell lymphoma TMD8 cells were monolayer-cultured in vitro in RPMI1640 medium with 10% fetal bovine serum, 100 U/mL penicillin and 100 µg/mL streptomycin, in a 37° C., 5% CO2 incubator. Routine digestion with trypsin-EDTA was performed twice a week for passaging. When the cell density was 80%-90% and the number reached the requirement, cells were harvested, counted and inoculated. 0.2 ml (1×10^7 cells) of TMD8 cells (added with matrigel at a volume ratio of 1:1) were subcutaneously inoculated on the right back of each mouse. The mice were administered in groups when the average tumor volume reached about 137 mm^3. Tumor diameters were measured twice a week with vernier calipers. The tumor volume was calculated by the formula V = 0.5 a × b^2, where a and b represent the long and short diameters of the tumor, respectively.

Data set [6] relates to DOHH-2-luc tumor cells in the mouse brain. Description: DOHH-2-Luc intracerebral tumor drug efficacy model test. Conditions: for tumor size in the brain by fluorescence image: DOHH-2-Luc intracerebral model, same dose, FIG. 4. Format: in vivo. The protocol:
Test Example 8: DOHH-2-Luc Intracerebral Tumor Drug Efficacy Model Test
DOHH-2-luc tumor cells were cultured in vitro with RPMI 1640 medium containing 10% fetal bovine serum and 500 ng/mL puromycin in a 37° C., 5% CO2 incubator. […] Tumor cells in logarithmic growth phase were used for inoculation of tumors in vivo.
2. Inoculation of Tumor Cell and Grouping
After the animal was anesthetized by intramuscular injection of Zoletil, it was fixed on the operating table in a prone position. The skin on the top of the head was disinfected with iodine and 75% alcohol respectively, and the skin was cut about 0.5 cm along the midline of the head to expose the coronal and sagittal lines. Being located about 0.5-1.0 mm above the coronal line and about 2 mm to the right of the sagittal line by using a brain locator, a hole was drilled with a 1 mL syringe needle. The micro-injector was inserted vertically to a depth of 3 mm at the location, slowly (about 1 min) injected with 3 × 10^5 DOHH-2-luc tumor cells /2 µL suspension and kept for 1 min. After pulling out the needle, the needle hole was quickly sealed with bone wax, and the wound was sutured with a stapler. About the 7th day after tumor inoculation, the animals were randomly divided into 5 groups according to the body weight of the animals and the optical signal intensity of the tumor site, with 5 animals in each group.
The mice were imaged 1-2 times a week according to their state using the small animal in vivo imaging system IVIS Lumina III (Perkin Elmer). The bioluminescence imaging (BLI, unit: photons/s) signal intensity at the tumor cell inoculation site of mouse was monitored as the main indicator for evaluating tumor growth and drug efficacy. The specific operation is as follows:
The mice were intraperitoneally injected with D-luciferin (15 mg/mL, 5 µL/g according to the body weight of the experimental animal), and then inhaled anesthetized with 1%-2% isoflurane. 10 min after the injection of D-luciferin, the animals were imaged with IVIS Lumina III. The data were analyzed and processed using Living Image software (Perkin Elmer), and the optical signal intensity in ROI (regions of interest) of each animal was calculated.

The subject of data set [7] is relapsed/refractory central nervous system lymphoma. Conditions: patients, cited from earlier work.

Read-outs that look alike come from different tables or passages of the source.

Chain of BTK wild-type kinase (Q06187 whole entry): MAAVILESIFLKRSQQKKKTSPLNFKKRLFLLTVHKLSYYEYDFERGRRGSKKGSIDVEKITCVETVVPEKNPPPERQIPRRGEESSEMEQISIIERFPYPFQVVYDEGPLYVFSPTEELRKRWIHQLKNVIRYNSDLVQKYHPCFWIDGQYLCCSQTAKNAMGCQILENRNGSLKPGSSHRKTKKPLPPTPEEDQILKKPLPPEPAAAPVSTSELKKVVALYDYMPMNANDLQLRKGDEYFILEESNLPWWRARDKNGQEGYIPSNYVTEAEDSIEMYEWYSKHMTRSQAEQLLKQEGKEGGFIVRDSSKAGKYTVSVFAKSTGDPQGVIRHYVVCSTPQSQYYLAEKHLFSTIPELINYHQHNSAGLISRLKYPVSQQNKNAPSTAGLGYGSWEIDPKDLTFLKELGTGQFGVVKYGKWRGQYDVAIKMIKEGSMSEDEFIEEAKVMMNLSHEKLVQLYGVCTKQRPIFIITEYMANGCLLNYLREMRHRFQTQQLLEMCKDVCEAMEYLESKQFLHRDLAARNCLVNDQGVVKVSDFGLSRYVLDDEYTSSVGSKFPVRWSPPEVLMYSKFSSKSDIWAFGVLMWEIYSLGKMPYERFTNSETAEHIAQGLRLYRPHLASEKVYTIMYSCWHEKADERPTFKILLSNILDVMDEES
Chain of BTK mutation-type C481S kinase (Q06187 whole entry C481S): as the sequence (Q06187 whole entry) above, with C481S counted along it

Regarding `Nc1nccn2c(C34CCC(CO)(CC3)OC4)nc(-c3ccc(C(=O)Nc4cc(C(F)(F)F)ccn4)cc3)c12` [Compound 118], the IC50 at BTK wild-type kinase is below 5 nM. The compound further yielded an IC50 in data set [1] below 5 nM. In data set [2], the “%Remaining (60 min)” value is 77.4% and the half-life was above 2.42 h. In data set [3], the “%Remaining (60 min)” value was 64.1% and the half-life is 1.69 h. In addition, in data set [4], the “Cl” value came out at 0.8 mL/min/kg, the AUC(0-inf) is 211000 ng·h/mL, the maximum concentration (Cmax) came out at 25700 ng/mL and the half-life was 3.35 h. Further, the “inhibitory effect against the tumor compared with ARQ-531 and ibrutinib” value in data set [5] was “significantly better inhibitory effect against the tumor”.

`CC#CC(=O)N1CC[C@@H](n2c(=O)n(-c3ccc(Oc4ccccc4)cc3)c3c(N)ncnc32)C1` [Tirabrutinib, reference compound]: in data set [2], the “%Remaining (60 min)” value is 66.3% and the half-life stood at 1.77 h. In data set [3], the “%Remaining (60 min)” value was found to be 37.0% and the half-life came to 0.702 h. Besides, in data set [4], the “Cl” value was determined as 189.92 mL/min/kg, the AUC(0-inf) was 965 ng·h/mL, the Cmax came out at 920 ng/mL and the half-life was 0.33 h. Besides, the “tumor size in the brain by fluorescence image” value in data set [6] is given as “large red areas”. Also, in data set [7] (320 mg QD), the ORR was 60% and the PFS is 2.1 months. In addition, in data set [7] (480 mg QD (fasting condition)), the ORR was 52.9% and the PFS is on record as 5.8 months. In addition, in data set [7] (480 mg QD), the ORR is given as 100% and the PFS is on record as 11.1 months.

At BTK wild-type kinase, `Nc1nccn2c(C34CCC(CO)(CC3)OC4)nc(-c3ccc(C(F)(F)c4ccccc4)cc3)c12` [Compound 125] registered an IC50 of 5 to 20 nM. This compound also came in with an IC50 in data set [1] below 5 nM. Further, in data set [2], the “%Remaining (60 min)” value is listed as 61.2% and the half-life is 1.58 h. Further, in data set [3], the “%Remaining (60 min)” value stood at 49% and the half-life turned out to be 1.06 h. Besides, in data set [4], the “Cl” value came to 17.42 mL/min/kg, the AUC(0-inf) turned out to be 8860 ng·h/mL, the Cmax was 1180 ng/mL and the half-life was 4.19 h. Moreover, in data set [5] (same dose of 20 mg/kg, FIG. 2), the “inhibitory effect against the tumor compared with Tirabrutinib” value is “significantly better inhibitory effect against the tumor”. Also, in data set [6] (DOHH2 tumor model in the mouse brain, same dose of 30 mg/kg (BID), FIG. 3), the “inhibitory effect against the tumor compared with Tirabrutinib” value is on record as “significantly better inhibitory effect against the tumor”. For the same compound, in data set [6], the “tumor size in the brain by fluorescence image” value is on record as “very good inhibitory effect against the tumor”. Also, the side effects entry in data set [6] (mouse, 30 mg/kg (BID), after 21 days of administration) is given as “no side effects”.

On BTK wild-type kinase, `COc1cccc(Oc2ccc(-c3nc(C4CCC(CO)OC4)n4ccnc(N)c34)cc2)c1C#N` (single isomer, unassigned) [Compound 89-P1] registered an IC50 below 5 nM. This compound also came in with an IC50 in data set [1] below 5 nM. Moreover, in data set [2], the “%Remaining (60 min)” value is listed as 100.4% and the half-life is above 2.42 h. Further, in data set [3], the “%Remaining (60 min)” value stood at 61.0% and the half-life was 1.47 h. For the same compound, in data set [4], the “Cl” value was found to be 20.53 mL/min/kg, the AUC(0-inf) worked out at 8120 ng·h/mL, the Cmax stood at 2980 ng/mL and the half-life was 1.16 h. Also, the “inhibitory effect against the tumor compared with ARQ-531 and ibrutinib” value in data set [5] is reported as “significantly better inhibitory effect against the tumor”.
